Reference: paper PMC6224419, “Structural Studies based on two Lysine Dioxygenases with Distinct Regioselectivity Brings Insights Into Enzyme Specificity within the Clavaminate Synthase-Like Family” (Scientific Reports, 2018)
Like-named read-outs stand apart in the source and are kept apart here.

Experiments:
KDO1 = biological target: T1, KDO1 (Catenulispora acidiphila, UniProt C7QJ42); assay type: binding; conditions: active site
T1 construct: gene Caci_0231; hexa-histidine tail (pET-22b(+)), E. coli BL21(DE3); dimer in solution; first ordered residue Glu30
T1 sequence (C7QJ42 1-358): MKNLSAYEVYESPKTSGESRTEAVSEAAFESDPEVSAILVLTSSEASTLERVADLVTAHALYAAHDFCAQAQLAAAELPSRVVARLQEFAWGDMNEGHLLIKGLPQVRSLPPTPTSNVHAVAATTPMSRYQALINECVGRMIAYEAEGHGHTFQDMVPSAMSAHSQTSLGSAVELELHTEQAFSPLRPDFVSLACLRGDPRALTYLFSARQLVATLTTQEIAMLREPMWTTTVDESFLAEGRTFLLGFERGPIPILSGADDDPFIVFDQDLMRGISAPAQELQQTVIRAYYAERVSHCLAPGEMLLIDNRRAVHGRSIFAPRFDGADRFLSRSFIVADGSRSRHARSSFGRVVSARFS

KDO5 = biological target: T2, KDO5 (Flavobacterium sp. CF136, UniProt J3BZS6); assay: X-ray crystal structure (soak); assay type: binding; conditions: active site
T2 construct: gene PMI10_03368; hexa-histidine tail (pET-22b(+)), E. coli BL21(DE3); tetramer in solution; first ordered residue Ala13

[1] = biological target: the molecule itself; assay: SEC; analytic gel filtration on Superdex 200 Increase 10/300 GL, 100 µL purified protein, 50 mM Tris-HCl pH 8.0, 50 mM NaCl, 10% glycerol, 0.3 ml/min; oligomeric state from elution volume against a calibration curve; data not shown
[2] = FeSO4/dithionite soak, monomer C

O=C(O)CCC(=O)C(=O)O [α-KG]
X-ray crystal structure (soak) (KDO1; FeSO4/dithionite soak, bidentate to iron, monomer B): In the α-KG crystals, the structure shows a well ordered α-KG in monomer B
X-ray crystal structure (soak) (KDO5; FeSO4/dithionite soak, bidentate to iron, monomer A): In α-KG bound structure, α-KG is best defined for monomer A

NCCC[C@H](O)[C@H](N)C(=O)O [(3S)-3-hydroxy-L-lysine]
X-ray crystal structure (soak) (KDO1; FeSO4/dithionite soak with succinate, monomer B): The (3S)-3-hydroxy-L-lysine makes salt bridges with Glu180

NCCCC[C@H](N)C(=O)O [L-lysine]
X-ray crystal structure (soak) (KDO1; [2]): In KDO1, the L-lysine complex shows a well ordered lysine in monomer C
X-ray crystal structure (soak) (KDO5; [2]): the carboxylate of L-lysine substrate is stabilized by salt bridges with the Arg338

O=C(O)CCC(=O)O [succinate]
X-ray crystal structure (soak) (KDO5; crystals soaked with L-lysine and α-ketoglutarate, FeSO4/dithionite, monomer D): The succinate resultant from the oxidative decarboxylation of the α-KG, makes H-bond Tyr193

B1: KDO5 from Flavobacterium sp. (L-lysine dioxygenase, C-4 regioselective) (enzyme, UniProt J3BZS6 1-372, looked up)
chain: MKSQSIMSVERSAETSLTLEIPTSPLIIKITQQERNILSNVGNLLVKAFGNYENPDYIASLHLHAFQLLPERITRILSQFGSDFSAEQYGAIVFQGLIEVDQDDLGPTPPNWQGADYGKLNKYGFICSLLHGAVPSKPVQYYAQRKGGGLLHAVIPDEKMAATQTGSGSKTDLFVHTEDAFLSNQADFLSFLYLRNEERVPSTLYSIRSHGKMNPVMKKLFEPIYQCPKDANYNDEDVANSGPTASVLYGNRELPFIRFDAAEQIFNENAGQTSEALGNLMDFWDEAKTLINSDYIPNSGDLIFVNNHLCAHGRSAFIAGQRIENGEIIKCERRQMLRMMSKTSLIHIRSVTRTDDPYFIMEEHLGKIFDLD
notes: KDO5, iron(II)/alpha-ketoacid-dependent lysine dioxygenase of Flavobacterium sp; Cloned into pET-22b(+) with a hexa-histidine tail; Tetramer in solution; four molecules (two dimers) in the asymmetric unit; First ordered residue in the crystals is Ala13; also called K DiOxygenase 5; source: E. coli BL21(DE3), purified (Ni-NTA)
stoichiometry N [1]: 4

B2: KDO1 from Catenulispora acidiphila (L-lysine dioxygenase, C-3 regioselective) (enzyme, UniProt C7QJ42 1-358, looked up)
chain: T1 sequence (C7QJ42 1-358)
notes: KDO1, iron(II)/alpha-ketoacid-dependent lysine dioxygenase of Catenulispora acidiphila; Cloned into pET-22b(+) with a hexa-histidine tail; Dimer in solution; four molecules (two dimers) in the asymmetric unit; First ordered residue in the crystals is Glu30; also called K DiOxygenase 1; source: E. coli BL21(DE3), purified (Ni-NTA)
stoichiometry N [1]: 2
